Experimental data published in ChEMBL document CHEMBL1201862, “PubChem BioAssay data set” (2004).
“And” between values parts separate entries of the source, which are not always exact repeats. Equal values may be shown once. The source made the active and inactive calls. Rule as the data show it, for most assays here: actives have a measured EC50 and inactives only a lower limit.

How the values were obtained:
[1] = target: T1, Heat shock factor protein 1 (Mus musculus, UniProt P38532); test: inhibition of MG132-induced HSE-luciferase signal, confirmation, cell-based, NIH3T3, luminescence, dose retest (AID 2382); format: functional;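 also: NIH3T3 fibroblasts with HSF1-driven luciferase reporter stressed by proteasome inhibitor MG132; luminescence from HSF1-driven luciferase expression after 8 hours of MG132 stress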
T1 sequence (P38532 whole entry): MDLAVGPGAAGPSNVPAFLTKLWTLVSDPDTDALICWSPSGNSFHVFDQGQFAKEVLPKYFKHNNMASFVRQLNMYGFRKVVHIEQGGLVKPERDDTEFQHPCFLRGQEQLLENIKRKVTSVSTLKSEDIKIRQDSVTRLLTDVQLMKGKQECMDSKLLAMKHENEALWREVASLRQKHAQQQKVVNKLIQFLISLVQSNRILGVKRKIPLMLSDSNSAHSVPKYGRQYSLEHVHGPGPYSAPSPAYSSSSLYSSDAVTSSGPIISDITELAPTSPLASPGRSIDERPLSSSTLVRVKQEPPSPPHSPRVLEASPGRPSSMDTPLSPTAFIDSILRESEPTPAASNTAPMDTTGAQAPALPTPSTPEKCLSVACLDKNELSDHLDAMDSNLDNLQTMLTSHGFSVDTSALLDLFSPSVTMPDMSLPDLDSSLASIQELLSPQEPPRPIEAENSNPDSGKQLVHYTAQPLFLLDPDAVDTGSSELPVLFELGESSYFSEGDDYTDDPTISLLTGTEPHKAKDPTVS

[2] = inhibitors of intracellular T. cruzi replication, confirmation, NIH3T3 host cells, beta-gal luminescence (AID 2044); format: functional, cell-based;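 also: intracellular parasites grown in NIH/3T3 mouse fibroblasts as host cells; luminescent beta-galactosidase reporter signal from transgenic T. cruzi replicating inside host cells; inhibitors lower the luminescence signal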
[3] = cytotoxicity toward NIH3T3 fibroblasts, dose response, counter-screen, cell-based, ATP luminescence, mouse fibroblasts (AID 2010); format: functional;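 also: cells exposed to compound for about 90 hours before reading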
Cytochrome P450 2C9 = Cytochrome P450 2C9 (Homo sapiens, UniProt P11712)
[4] = Luminescence Cell-Based Dose Retest to Confirm Inhibitors of Cancer Stem Cells. [Related pubchem assays (depositor defined):AID2717, AID2721]; format: functional; conditions: Homo sapiens
Cytochrome P450 3A4 = Cytochrome P450 3A4 (Homo sapiens, UniProt P08684);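 also: CYP3A4 tested as one member of a cytochrome P450 panel screen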
[5] = target: T2, Corticotropin-releasing factor receptor 2/Corticotropin-releasing factor-binding protein (Homo sapiens, UniProt P24387+Q13324); test: activators of CRF receptor 2 with binding protein – uHTS hits, confirmation (AID 602473); format: functional; conditions: read-out: EC50_Mean
T2 sequence (Q13324 whole entry): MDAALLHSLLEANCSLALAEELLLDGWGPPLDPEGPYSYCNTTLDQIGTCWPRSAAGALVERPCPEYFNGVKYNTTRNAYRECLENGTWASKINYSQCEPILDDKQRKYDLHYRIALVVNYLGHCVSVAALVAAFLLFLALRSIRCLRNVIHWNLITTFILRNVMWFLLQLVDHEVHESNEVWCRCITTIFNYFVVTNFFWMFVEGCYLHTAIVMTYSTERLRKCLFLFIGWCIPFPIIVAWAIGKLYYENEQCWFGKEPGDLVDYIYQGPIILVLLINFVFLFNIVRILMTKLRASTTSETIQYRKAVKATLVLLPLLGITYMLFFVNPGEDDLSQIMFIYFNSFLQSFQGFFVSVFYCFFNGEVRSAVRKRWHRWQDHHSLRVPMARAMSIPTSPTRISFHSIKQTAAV
T2 sequence (P24387 whole entry): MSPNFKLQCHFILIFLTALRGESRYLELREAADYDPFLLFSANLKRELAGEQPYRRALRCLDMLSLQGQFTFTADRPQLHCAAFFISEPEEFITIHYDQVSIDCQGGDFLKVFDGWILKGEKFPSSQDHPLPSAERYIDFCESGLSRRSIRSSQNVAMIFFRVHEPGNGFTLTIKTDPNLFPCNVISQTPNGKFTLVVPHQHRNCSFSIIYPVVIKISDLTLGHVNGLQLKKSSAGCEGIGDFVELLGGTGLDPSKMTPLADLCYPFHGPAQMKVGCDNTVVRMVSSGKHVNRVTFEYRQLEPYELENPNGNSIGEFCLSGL

[6] = Luminescence Cell-Based Dose Response HTS to Identify Activators of Luciferase Translation or Activity in H4 […] Cells. [Related pubchem assays: 1829 (Project Summary), 1814 (Primary HTS)]; format: functional

Sequence of Cytochrome P450 3A4 (P08684 whole entry): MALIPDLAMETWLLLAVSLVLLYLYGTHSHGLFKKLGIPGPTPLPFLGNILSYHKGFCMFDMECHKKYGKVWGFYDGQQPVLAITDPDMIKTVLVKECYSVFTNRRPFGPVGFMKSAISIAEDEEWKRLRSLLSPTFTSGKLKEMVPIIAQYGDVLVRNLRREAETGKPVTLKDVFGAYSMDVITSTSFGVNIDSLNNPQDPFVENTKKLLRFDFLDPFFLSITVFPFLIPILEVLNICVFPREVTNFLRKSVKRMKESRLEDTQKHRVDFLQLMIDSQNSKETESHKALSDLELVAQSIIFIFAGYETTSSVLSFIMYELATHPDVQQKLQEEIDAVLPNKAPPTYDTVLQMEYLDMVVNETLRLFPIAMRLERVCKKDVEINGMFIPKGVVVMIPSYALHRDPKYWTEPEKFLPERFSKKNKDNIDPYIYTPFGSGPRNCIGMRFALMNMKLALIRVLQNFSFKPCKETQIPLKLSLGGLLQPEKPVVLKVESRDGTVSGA
Sequence of Cytochrome P450 2C9 (P11712 whole entry): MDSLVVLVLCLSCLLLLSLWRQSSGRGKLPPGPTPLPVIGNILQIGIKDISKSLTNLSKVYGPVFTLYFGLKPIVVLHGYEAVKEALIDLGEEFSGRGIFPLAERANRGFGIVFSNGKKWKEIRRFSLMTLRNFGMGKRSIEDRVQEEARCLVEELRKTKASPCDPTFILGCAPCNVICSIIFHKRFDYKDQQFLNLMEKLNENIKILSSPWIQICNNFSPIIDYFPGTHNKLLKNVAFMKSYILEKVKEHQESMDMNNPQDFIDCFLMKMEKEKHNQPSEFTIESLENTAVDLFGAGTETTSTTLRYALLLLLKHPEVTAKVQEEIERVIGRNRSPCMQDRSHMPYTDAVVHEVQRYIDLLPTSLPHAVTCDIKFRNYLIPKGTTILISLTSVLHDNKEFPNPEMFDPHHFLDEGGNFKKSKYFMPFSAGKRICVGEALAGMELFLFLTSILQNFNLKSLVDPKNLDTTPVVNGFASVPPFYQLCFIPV

For `CCN(CC(=O)Nc1ccc(NC(C)=O)cc1)C(=O)C12CC3CC(CC(Cl)(C3)C1)C2`, the EC50 [1] was > 195 µM (not active).

In the case of `CCOc1cc(C#N)c(NC(=O)c2cccnc2Cl)cc1OCC`, the EC50 [1] is reported as > 195 µM (not active).

For `CC(C)c1ccc(CNCCCSc2ncccn2)cc1`, the EC50 [2] was 0.163 µM (active) and the EC50 [3] was > 30 µM (not active).

In the case of `CCC(C)NC(=O)CN1C(=O)CN=C(c2ccccc2)c2ccccc21` (centres undefined), the EC50 [1] is reported as > 195 µM (not active).

For `COc1cccc(-c2nccc(NCc3cccc(C)c3)n2)c1`, the AC50 (Cytochrome P450 2C9) was 1.58 µM (inconclusive).

For `Nc1ncnc2c1ncn2[C@@H]1O[C@H](CO)C[C@@H]1O`, the EC50 [2] was 0.531 µM (active) and the EC50 [3] was > 60 µM (not active).

With `S=C(Nc1ccc(Oc2ccccc2)cc1)NC1CCCCCC1` the AC50 [4] was 5.01 µM (active).

With `CC(=O)Nc1ccc2nc(NC(=O)c3ccc([N+](=O)[O-])s3)sc2c1` the EC50 [2] was 0.993 µM (active) and the EC50 [3] was > 60 µM (not active).

For `CCOc1ccc(CN2CCN(Cc3nc4c(s3)CCCC4)CC2CCO)cc1` (centres undefined), the EC50 [2] was 0.772 µM (active) and the EC50 [3] was > 60 µM (not active).

In the case of `O=C(O)CCC(=O)N1CCc2cc(S(=O)(=O)N3CCCCC3)ccc21`, the AC50 (Cytochrome P450 2C9) is reported as 15.8 µM (inconclusive).

For `CCN1CCN(c2ccc(S(=O)(=O)N3CCCCC3)cc2NC(=O)Cc2ccccc2F)CC1`, the EC50 [2] was 0.235 µM (active) and the EC50 [3] was > 30 µM (not active).

For `CC(C)(C)S(=O)(=O)c1cnc2c(-c3ccc(F)cc3)cnn2c1N`, the AC50 (Cytochrome P450 3A4) was 7.94 µM (inconclusive).

With `CN(Cc1nc(-c2ccccc2)no1)C(=O)c1ccc2c(c1)OCO2` the EC50 [1] was > 195 µM (not active).

In the case of `O=C(Nc1cccc(F)c1)N1CC[C@@]2(CCCNC2)C1`, the AC50 (Cytochrome P450 3A4) is reported as 7.94 µM (inconclusive).

With `CCOc1ccc(C(=O)Nc2ccccc2N2CCCC2)cc1` the AC50 (Cytochrome P450 2C9) was 14.1 µM (inconclusive).

With `COc1ncc2nc(C)c(=O)n(C3CC3)c2n1` the AC50 (Cytochrome P450 3A4) was 25.1 µM (inconclusive).

For `Cc1noc(C)c1COc1cccc(C(=O)Nc2ccc(OCc3ccccc3)cc2)c1`, the AC50 [4] was 10.8 µM (active).

For `Cc1ccc(SC[C@H](C)CN2CC[C@H](C(C)(C)C)CCC2=O)cc1`, the AC50 [4] was 1.56 µM (active).

With `COc1cc(CNCc2c[nH]c3ccccc23)cc(OC)c1` the EC50 [2] was 2.93 µM (active) and the EC50 [3] was > 60 µM (not active).

For `CCOC(=O)c1c(-c2ccccc2)n(C)c2ccc(O)cc12`, the EC50 [1] was > 195 µM (not active).

With `O=C(COC(=O)C1C2CC3OC(=O)C1C3C2)Nc1cccc(Cl)c1` (centres undefined) the EC50 [1] was > 195 µM (not active).

In the case of `O=C(Oc1ccc2c(c1)CN(Cc1ccccc1)CO2)c1ccccc1`, the AC50 (Cytochrome P450 3A4) is reported as 3.98 µM (inconclusive).

For `CNC(=O)c1ccsc1NC(=O)c1ccc(S(=O)(=O)N2CCCc3ccccc32)cc1`, the EC50 [2] was 2.02 µM (active) and the EC50 [3] was > 60 µM (inconclusive).

For `COCCCNC(=O)C1CC(=O)N(CCc2ccc(OC)c(OC)c2)C1` (centres undefined), the AC50 (Cytochrome P450 3A4) was 15.8 µM (inconclusive).

With `Cc1onc(-c2ccc(Cl)cc2)c1-c1ccnc(SCC(=O)Nc2cc(Cl)cc(Cl)c2)n1` the EC50 [2] was 1.72 µM (active) and the EC50 [3] was > 60 µM (not active).

For `CCCOc1c(OC)cccc1C1CC(=O)Nc2cc3c(cc21)OCCO3` (centres undefined), the AC50 [4] was 1.85 µM (active).

For `NS(=O)(=O)c1ccc(NC(=O)COC(=O)C2(c3ccccc3F)CCCC2)cc1`, the EC50 [1] was 26 µM (active).

With `Cc1c(C(=O)Nc2ccc(Cl)cc2)c2ccccn2c1C(=O)c1ccc([N+](=O)[O-])cc1` the EC50 [2] was 0.737 µM (active) and the EC50 [3] was > 60 µM (not active).

For `Cn1c(CN2CCCC(C(=O)c3ccc4c(c3)OCO4)C2)nc2ccccc21` (centres undefined), the EC50 [2] was 1.35 µM (active) and the EC50 [3] was > 60 µM (inconclusive).

In the case of `CCN(CC)C(=O)N[C@@H]1C[C@H]2c3cccc4[nH]cc(c34)C[C@@H]2N(C)C1`, the AC50 (Cytochrome P450 3A4) is reported as 6.31 µM (inconclusive) and 3.98 µM (inconclusive).

For `COc1ccccc1Oc1ccc2c(c1)C(=O)N(c1ccc(Br)c3cccnc13)C2=O`, the EC50 [1] was > 195 µM (not active).

In the case of `Clc1ccc(Cl)c(Nc2ccnc(SCc3ccccc3)n2)c1`, the AC50 (Cytochrome P450 2C9) is reported as 6.31 µM (inconclusive) and the AC50 (Cytochrome P450 3A4) is reported as 3.98 µM (inconclusive).

For `O=C(CSc1ncc(-c2ccccc2)n1C1CCCC1)N1CCc2ccccc21`, the EC50 [5] was > 53 µM (inactive), the EC50 [2] was 1.81 µM (active) and the EC50 [3] was > 60 µM (not active).

With `COc1ccccc1NC(=O)Cn1c(=O)c(N(C)C)c(N)n(C)c1=O` the EC50 [1] was > 195 µM (not active).

In the case of `O=C(NNC(=S)Nc1ccccc1)c1ccco1`, the AC50 (Cytochrome P450 2C9) is reported as 35.5 µM (inconclusive).

With `COc1ccc(S(=O)(=O)/C(C#N)=C/Nc2cccc(OC)c2)cc1` the EC50 [1] was > 195 µM (not active).

With `Cc1cc2nc(-c3ccc(SCc4ccc(C#N)cc4)nc3)[nH]c2cc1C` the EC50 [2] was 2.06 µM (active) and the EC50 [3] was > 60 µM (inconclusive).

With `N#CC(=C1CCCC1)c1nc(-c2ccccc2)cs1` the AC50 (Cytochrome P450 2C9) was 25.1 µM (inconclusive).

In the case of `C[C@@H]1CC=C[C@H]2[C@H]1C(=O)N(Cc1ccccc1)[C@H]2c1ccc2ccccc2c1`, the AC50 [4] is reported as 5.69 µM (active).

For `CCN1C(=O)c2ccccc2[S+]([O-])c2ccc(C(=O)NCc3ccc(OC)cc3)cc21` (centres undefined), the EC50 [1] was > 195 µM (not active).

In the case of `COc1ccc(C(=O)C2CCCN(Cc3cccn3-c3ccc(Cl)cn3)C2)c(OC)c1` (centres undefined), the EC50 [2] is reported as 1.47 µM (active) and the EC50 [3] is reported as > 60 µM (not active).

In the case of `O=C1NC(=O)[C@@](Cc2ccccc2)(c2cccnc2)N1`, the AC50 (Cytochrome P450 3A4) is reported as 3.98 µM (inconclusive).

In the case of `CN(C)Cc1ccccc1-c1cc(N(C)Cc2ccco2)ncn1`, the AC50 (Cytochrome P450 3A4) is reported as 25.1 µM (inconclusive).

For `Fc1cccc(Cl)c1/C=N\N=C1c2ccccc2-c2ccccc21`, the AC50 (Cytochrome P450 2C9) was 3.16 µM (inconclusive).

For `COc1ccc(OC)c(Nc2c3ccccc3nc3ccccc23)c1`, the AC50 [4] was 3.78 µM (active).

For `COc1ccc(CN2CC=C(c3ccc(F)cc3)CC2)cc1Br`, the EC50 [1] was > 195 µM (not active).

In the case of `c1cncc(CNc2cc(-c3ccoc3)ncn2)c1`, the AC50 (Cytochrome P450 3A4) is reported as 3.98 µM (inconclusive).

With `CC(C)N(CCNC(=O)C1CCC(=O)N1Cc1ccc(F)cc1)Cc1ccccc1` (centres undefined) the AC50 (Cytochrome P450 2C9) was 22.4 µM (inconclusive).

For `COC(=O)[C@@]1(Cc2ccc(F)cc2)[C@H]2c3cc(C(=O)N4CCCC4)n(CCc4c[nH]c5ccc(OC)cc45)c3C[C@H]2CN1C(=O)c1ccccc1`, the AC50 (Cytochrome P450 3A4) was 0.251 µM (inconclusive).

For `Fc1ccccc1Nc1nc(-c2ccncc2)nc2ccccc12`, the EC50 [2] was 1.32 µM (active) and the EC50 [3] was > 60 µM (not active).

In the case of `CCC(=O)N(Cc1ccco1)c1nc(-c2ccccc2)cs1`, the AC50 (Cytochrome P450 3A4) is reported as 39.8 µM (inconclusive).

In the case of `Cc1cc(OCC(=O)N2CCOCC2)ccc1NC(=O)c1ccccc1C`, the EC50 [1] is reported as > 195 µM (not active).

For `COc1cc(CCC(=O)OCn2nnc3ccccc3c2=O)cc(OC)c1OC`, the EC50 [1] was > 195 µM (not active).

For `O=C(C1CCN(S(=O)(=O)N2CCOCC2)CC1)N1CCN(c2ccccc2)CC1`, the AC50 (Cytochrome P450 2C9) was 22.4 µM (inconclusive).

For `CC(=O)OCC(=O)NCC(=O)c1c[nH]c2ccccc12`, the EC50 [1] was > 195 µM (not active).

In the case of `Cc1n[nH]c(Nc2ccccc2)c1[N+](=O)[O-]`, the AC50 (Cytochrome P450 3A4) is reported as 25.1 µM (inconclusive).

For `CC1CN(S(=O)(=O)c2ccc(C(=O)Nc3nnc(-c4ccc5c(c4)CCCC5)o3)cc2)CC(C)O1` (centres undefined), the EC50 [2] was 1.86 µM (active) and the EC50 [3] was 3.39 µM (active).

For `CCN(CC)S(=O)(=O)c1cc(C(=O)Nc2ccccc2C(=O)O)ccc1OC`, the AC50 (Cytochrome P450 3A4) was 12.6 µM (inconclusive).

For `C=CCOc1ccc(/C=N\NC(N)=S)cc1`, the EC50 [2] was 1.17 µM (active) and the EC50 [3] was > 60 µM (inconclusive).

For `CN(C)c1ccc(/N=C/c2nc(-c3ccccc3)oc2OC(=O)c2cccc(Br)c2)cc1`, the EC50 [6] was 31 µM (active).

In the case of `C/C(=N\Nc1ccc(C(=O)O)cc1)c1nc2ccccc2n1C`, the EC50 [6] is reported as 18.9 µM (active).
